US9226503B2, “Composition and method for attraction of emerald ash borer Agrilus planipennis fairmaire (coleoptera: buprestidae)” (Her Majesty the Queen in Right of Canada, as represented by …, priority 2011, dated 2016)

Assays:
[1] = test system: A. planipennis antennae; experiment: GC-EAD analysis; set-up: species or system Agrilus planipennis; conditions: synthetic mixture of (3E)- and (3Z)-lactones
Experimental: A Varian CP-3380 gas chromatograph with FID detector was modified for use with a GC-EAD signal recording device (IDAC-232). EAG data were analyzed using Syntech GC-EAD software v.2.6 (SYNTECH, The Netherlands). The column used for analysis was a Supelco SPB-5 capillary (30 m×0.32 mm×0.25 μm film) in the splitless mode with helium as carrier gas. The injection port was at 220° C. and the oven temperature was programmed from 70° C., held for 1 min and then increased at 10° C./min to 240° C. and held for 30 min. A number of GC-EAD runs on male and female volatiles were carried out. Both the (3Z)-lactone and (3E)-lactone were diluted to 10 μg/ml in hexane; 1 μl of diluted pheromone was injected for each GC-EAD run.
Ten nanograms was injected for the GC-EAD analysis consisting of 90% (3Z)-lactone and 10% (3E)-lactone using a DB-1 (15 m×0.25 mm ID, 1 μm film) capillary column (J&W Scientific, Folsom, Calif.). The GC oven temperature program was 50° C. for 1 min, then increased at 20° C./min and held at 280° C. for 2 min. The GC-EAD responses of five male and five female EAB antennae were analyzed.

[2] = Effect of light on (3Z)-lactone (isomerization); assay type: physicochemical; conditions: for isomerization in direct sunlight: quartz cuvette or surface of female cadavers, 2-3 days
Experimental: To determine whether light would promote the isomerization from (3Z) to (3E)-lactone, 20 mg of (3Z)-lactone was placed neat on a glass slide 10 mm below a UV light (UVG-54 handheld UV-lamp, 254 nm, 6w; UVP Upland Calif., USA) for three d. Subsamples (taken as 1 mg in a pipette) were analyzed by GC/MS at regular intervals and the ratio of (3E):(3Z)-lactone was recorded. In addition, 6 mg of each of (3Z)- and (3E)-lactones (neat) were coated on the quartz surface of a cuvette and exposed outdoors to sunlight at 11° C. mean temperature for 9 d for an average of 5 h a day. Finally, (3Z)-lactone was coated (4 mg) on the dorsal surface of abdomen and […] of 3 female EAB cadavers that were exposed to sunlight for 6 h per day for 1, 2 or 3 d at 10° C. mean temperature; cadavers were stored at 4° C. between sunny days. The lactones were removed from cuvettes and cadavers with hexane washing and analysed by GC/MS to determine the E:Z ratio.

[3] = test system: A. planipennis; experiment: Field trapping experiment 2 (2009), purple prism traps, Ontario; assay type: in vivo, Agrilus planipennis; conditions: as compared to the Phoebe oil alone
Experimental: Field trapping. Three trapping experiments were carried out in green ash plantations (F. pennsylvanica Marsch) with low-to-moderate A. planipennis populations about 40 km southeast of Sarnia, Ontario (42° 58′ 0 N, 82° 24′ 0 W) in 2008, 2009 and 2010. Trees at these sites were generally healthy in appearance with low or no signs of decline, and only a small number of trees had obvious signs/symptoms of infestation by A. planipennis. In Ontario sites, trees were 20-25 years old, 4-6 m tall, 10-15 cm in diameter, and spaced about 2 m apart within a row and 2.5 m between rows. In 2010, the trapping experiment was replicated at four sites in Michigan, USA, in addition to the sites in Ontario. Sites in Michigan were 10-100 years old, 10-30 m tall, 15-70 cm in diameter, and located in a mixed woodlot. […] Traps were checked every 2 weeks and A. planipennis were collected, counted and sexed. […]
The effect of each attractant on mean catch of female and male A. planipennis was analyzed independently using ANOVA and a randomized complete block design. Sites were analyzed separately in 2009 due to differences in sex ratios. In 2010, sites in Ontario were analyzed separately from those in Michigan due to the considerable differences in stand conditions and height of traps with respect to the ash canopy. […]

effect of storing in a pyrex container (filters out UV-light) [2] | conjugated isomer formed on UV exposure ([2]; UV lamp 254 nm, GC/MS) [%] | (3E):(3Z) ratio, initial lactone sample ([2]; before UV exposure) | (3E):(3Z) ratio after exposure to UV light ([2]; neat, UV lamp 254 nm, three d) | stability to isomerization under normal laboratory fluorescent lighting ([2]; preliminary studies) | isomerization in direct sunlight [2] | Compound | GC-FID/EAD responses of male and female antennae [1] | number of male or female A. planipennis captured, effect of lactone alone or with Phoebe oil [3]
preventing photoisomerisation | < 1 | 0.028 | 0.60 | very stable | very slow isomerization | O=C1C/C=C\CCCCCCCCO1 [(3Z)-lactone, (3Z)-dodecen-12-olide] | significant responses | neither (3Z) nor (3E)-lactone alone, or in combination with Phoebe oil, significantly increased
 |  |  |  |  | very slow isomerization | O=C1C/C=C/CCCCCCCCO1 [(3E)-lactone, (3E)-dodecen-12-olide] | significant responses | neither (3Z) nor (3E)-lactone alone, or in combination with Phoebe oil, significantly increased
